Measurements: patent US6737383B1, “Herbicidal oxadiazolidines” (priority 1999, dated 2004)

Key:
crabgrass = assay: Test B pre/postemergence crabgrass; type: in vivo, Digitaria sanguinalis
Procedure, shortened: (§1)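 Herbicidal effect was estimated by eye on a ten-point control scale after plants spent twelve to sixteen days in a greenhouse following soil or foliar treatment. Foliar sprays targeted plants at one to four leaves; all doses were formulated in a non-phytotoxic solvent with surfactant.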

cocklebur = assay: Test B pre/postemergence cocklebur; type: in vivo, Xanthium strumarium
Procedure, shortened: as §1

soybean = assay: Test B pre/postemergence soybean; type: in vivo, Glycine max
Procedure, shortened: as §1

smallflower flatsedge = assay: Test B flood test smallflower flatsedge; type: in vivo, Cyperus difformis
Procedure, shortened: (§2)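 Plants were grown to the 2-leaf stage before treatment with test chemical, then held in a greenhouse for twelve to sixteen days. Injury was visually rated against untreated controls on a 0–10 scale, where 0 is no effect and 10 is complete control.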

velvetleaf = assay: Test B pre/postemergence velvetleaf; type: in vivo, Abutilon theophrasti
Procedure, shortened: as §1

giant foxtail = assay: Test B pre/postemergence giant foxtail; type: in vivo, Setaria faberii
Procedure, shortened: as §1

wild oat = assay: Test B pre/postemergence wild oat; type: in vivo, Avena fatua
Procedure, shortened: as §1

corn = assay: Test B pre/postemergence corn; type: in vivo, Zea mays
Procedure, shortened: as §1

bedstraw = assay: Test B pre/postemergence bedstraw; type: in vivo, Galium aparine; conditions: Postemergence, Rate 125 g/ha; scale 0 to 10, 0 is no effect, 10 is complete control
Procedure, shortened: as §1

wheat = assay: Test B pre/postemergence wheat; type: in vivo, Triticum aestivum
Procedure, shortened: as §1

duck salad = assay: Test B flood test duck salad; type: in vivo, Heteranthera limosa
Procedure, shortened: as §2

surinam grass = assay: Test B pre/postemergence surinam grass; type: in vivo, Brachiaria decumbens
Procedure, shortened: as §1

blackgrass = assay: Test B pre/postemergence blackgrass; type: in vivo, Alopecurus myosuroides
Procedure, shortened: as §1

bamyardgrass = assay: Test B flood test barnyardgrass; type: in vivo, Echinochloa crus-galli
Procedure, shortened: as §2

rice = assay: Test B flood test rice; type: in vivo, Oryza sativa
Procedure, shortened: as §2

sugar beet = assay: Test B pre/postemergence sugar beet; type: in vivo, Beta vulgaris
Procedure, shortened: as §1

rape = assay: Test B pre/postemergence rape; type: in vivo, Brassica napus
Procedure, shortened: as §1

morningglory = assay: Test B pre/postemergence morningglory; type: in vivo, Ipomoea hederacea
Procedure, shortened: as §1

pigweed = assay: Test B pre/postemergence pigweed; type: in vivo, Amaranthus retroflexus
Procedure, shortened: as §1

purple nutsedge = assay: Test B pre/postemergence purple nutsedge; type: in vivo, Cyperus rotundus
Procedure, shortened: as §1

[1] = Postemergence, Rate 125 g/ha, scale 0 to 10, 0 is no effect, 10 is complete control
[2] = Postemergence, Rate 250 g/ha, scale 0 to 10
[3] = Postemergence, Rate 500 g/ha, scale 0 to 10, 0 is no effect, 10 is complete control
[4] = Preemergence, Rate 62 g/ha, scale of 0 to 10 where 0 is no effect and 10 is complete control
[5] = Preemergence, Rate 125 g/ha, scale 0 to 10, 0 is no effect, 10 is complete control
[6] = Preemergence, Rate 500 g/ha, scale 0 to 10, 0 is no effect, 10 is complete control
[7] = Rate 62 g/ha, Postemergence, scale 0 to 10 (0 no effect, 10 complete control)
[8] = Preemergence, Rate 250 g/ha, scale 0 to 10, 0 is no effect, 10 is complete control
[9] = Rate 62 g/ha, flood test species, Pre-emergence, visual evaluation after twelve to sixteen days
[10] = Rate 125 g/ha, under heading Pre-emergence, flood test species, visual evaluation after twelve to sixteen days
[11] = Rate 250 g/ha, Pre-emergence (flood test species), scale 0 to 10, 0 is no effect, 10 is complete control
[12] = Rate 500 g/ha, Pre-emergence section of Table B, 0 to 10 scale (0 no effect, 10 complete control)

CC(C)N(C(=O)n1oc(=O)n(CC(=O)C2CC2)c1=O)c1ccc(F)cc1F [Compound 490]
Crabgrass plant response rating (crabgrass; [1]): 6
Crabgrass plant response rating (crabgrass; [2]): 6
Plant response rating, Crabgrass (crabgrass; [3]): 7
Plant response rating, Crabgrass (crabgrass; [4]): 8
Crabgrass plant response rating (crabgrass; [5]): 9
Crabgrass plant response rating (crabgrass; [6]): 10
Crabgrass plant response rating (crabgrass; [7]): 3
Cocklebur plant response rating (cocklebur; [1]): 0
Cocklebur plant response rating (cocklebur; [2]): 0
Plant response rating, Cocklebur (cocklebur; [3]): 0
Cocklebur plant response rating (cocklebur; [5]): 0
Cocklebur plant response rating (cocklebur; [8]): 0
Cocklebur plant response rating (cocklebur; [7]): 0
Soybean plant response rating (soybean; [1]): 5
Plant response rating, Soybean (soybean; [3]): 6
Plant response rating, Soybean (soybean; [4]): 0
Soybean plant response rating (soybean; [5]): 0
Soybean plant response rating (soybean; [6]): 4
Soybean plant response rating (soybean; [7]): 4
Plant response rating, S. Flatsedge (0 to 10 scale, 0 is no effect, 10 is complete control) (smallflower flatsedge; [9]): 0
S. Flatsedge plant response rating (0 to 10 scale, 0 is no effect, 10 is complete control) (smallflower flatsedge; [10]): 0
S. Flatsedge plant response rating (smallflower flatsedge; [11]): 0
S. Flatsedge plant response rating (smallflower flatsedge; [12]): 0
Velvetleaf plant response rating (velvetleaf; [1]): 0
Plant response rating, Velvetleaf (velvetleaf; [3]): 1
Plant response rating, Velvetleaf (velvetleaf; [4]): 0
Velvetleaf plant response rating (velvetleaf; [5]): 0
Velvetleaf plant response rating (velvetleaf; [6]): 4
Velvetleaf plant response rating (velvetleaf; [7]): 0
Giant foxtail plant response rating (giant foxtail; [1]): 8
Plant response rating, Giant foxtail (giant foxtail; [3]): 8
Plant response rating, Giant foxtail (giant foxtail; [4]): 9
Giant foxtail plant response rating (giant foxtail; [5]): 9
Giant foxtail plant response rating (giant foxtail; [6]): 10
Giant foxtail plant response rating (giant foxtail; [7]): 2
Wild oats plant response rating (wild oat; [1]): 5
Plant response rating, Wild oats (wild oat; [3]): 7
Plant response rating, Wild oats (wild oat; [4]): 6
Wild oats plant response rating (wild oat; [5]): 7
Wild oats plant response rating (wild oat; [6]): 8
Wild oats plant response rating (wild oat; [7]): 5
Corn plant response rating (corn; [1]): 0
Corn plant response rating (corn; [2]): 0
Plant response rating, Corn (corn; [3]): 0
Plant response rating, Corn (corn; [4]): 0
Corn plant response rating (corn; [5]): 0
Corn plant response rating (corn; [6]): 5
Corn plant response rating (corn; [7]): 0
Bedstraw plant response rating (bedstraw): 3
Wheat plant response rating (wheat; [1]): 0
Plant response rating, Wheat (wheat; [3]): 0
Plant response rating, Wheat (wheat; [4]): 0
Wheat plant response rating (wheat; [5]): 0
Wheat plant response rating (wheat; [6]): 4
Wheat plant response rating (wheat; [7]): 0
Plant response rating, Ducksalad (0 to 10 scale, 0 is no effect, 10 is complete control) (duck salad; [9]): 0
Ducksalad plant response rating (0 to 10 scale, 0 is no effect, 10 is complete control) (duck salad; [10]): 0
Ducksalad plant response rating (duck salad; [11]): 0
Ducksalad plant response rating (duck salad; [12]): 0
B. signalgrass plant response rating (surinam grass; [1]): 4
B. signalgrass plant response rating (surinam grass; Postemergence, Rate 250 g/ha, scale 0 to 10, 0 no effect, 10 complete control): 4
Plant response rating, B. signalgrass (surinam grass; [3]): 7
Plant response rating, B. signalgrass (surinam grass; [4]): 3
B. signalgrass plant response rating (surinam grass; [5]): 5
B. signalgrass plant response rating (surinam grass; [8]): 6
B. signalgrass plant response rating (surinam grass; [6]): 8
B. signalgrass plant response rating (surinam grass; [7]): 2
Blackgrass plant response rating (blackgrass; [1]): 4
Plant response rating, Blackgrass (blackgrass; [3]): 5
Plant response rating, Blackgrass (blackgrass; [4]): 7
Blackgrass plant response rating (blackgrass; [5]): 8
Blackgrass plant response rating (blackgrass; [8]): 9
Blackgrass plant response rating (blackgrass; [6]): 9
Blackgrass plant response rating (blackgrass; [7]): 2
Plant response rating, Barnyardgrass (0 to 10 scale, 0 is no effect, 10 is complete control) (bamyardgrass; [9]): 0
Barnyardgrass plant response rating (0 to 10 scale, 0 is no effect, 10 is complete control) (bamyardgrass; [10]): 0
Barnyardgrass plant response rating (bamyardgrass; [11]): 0
Barnyardgrass plant response rating (bamyardgrass; [12]): 0
Plant response rating, Rice (0 to 10 scale, 0 is no effect, 10 is complete control) (rice; [9]): 0
Rice plant response rating (0 to 10 scale, 0 is no effect, 10 is complete control) (rice; [10]): 0
Rice plant response rating (rice; [11]): 0
Rice plant response rating (rice; [12]): 0
Sugarbeets plant response rating (sugar beet; [1]): 0
Plant response rating, Sugarbeets (sugar beet; [3]): 0
Plant response rating, Sugarbeets (sugar beet; [4]): 0
Sugarbeets plant response rating (sugar beet; [5]): 0
Sugarbeets plant response rating (sugar beet; [6]): 5
Sugarbeets plant response rating (sugar beet; [7]): 0
Rape plant response rating (rape; [1]): 0
Plant response rating, Rape (rape; [3]): 0
Plant response rating, Rape (rape; [4]): 0
Rape plant response rating (rape; [5]): 1
Rape plant response rating (rape; [6]): 8
Rape plant response rating (rape; [7]): 0
Morningglory plant response rating (morningglory; [1]): 3
Plant response rating, Morningglory (morningglory; [3]): 3
Plant response rating, Morningglory (morningglory; [4]): 0
Morningglory plant response rating (morningglory; [5]): 0
Morningglory plant response rating (morningglory; [6]): 0
Morningglory plant response rating (morningglory; [7]): 2
Redroot pigweed plant response rating (pigweed; [1]): 0
Plant response rating, Redroot pigweed (pigweed; [3]): 2
Plant response rating, Redroot pigweed (pigweed; [4]): 5
Redroot pigweed plant response rating (pigweed; [5]): 7
Redroot pigweed plant response rating (pigweed; [6]): 8
Redroot pigweed plant response rating (pigweed; [7]): 0
Nutsedge plant response rating (purple nutsedge; [1]): 0
Plant response rating, Nutsedge (purple nutsedge; [3]): 0
Plant response rating, Nutsedge (purple nutsedge; [4]): 0
Nutsedge plant response rating (purple nutsedge; [5]): 0
Nutsedge plant response rating (purple nutsedge; [6]): 0
Nutsedge plant response rating (purple nutsedge; [7]): 0
